Measured values published in ChEMBL document CHEMBL1123299, “New antiarrhythmic agents. 2,2,5,5-Tetramethyl-3-pyrroline-3-carboxamides and 2,2,5,5-tetramethylpyrrolidine-3-carboxamindes” (J Med Chem, 1986).

What was measured:
[1] = organism: Rattus norvegicus; test: Relative potency with reference to quinidine; type: functional
[2] = tested on: Cavia porcellus; test: Amount of ouabain needed for production of ventricular fibrillation at a dose of 1 mg/kg (iv given 5 min prior) in guinea pig; type: functional, Cardiac ventricle
[3] = tested on: Cavia porcellus; test: Amount of ouabain needed for production of ventricular arrhythmias that causes death in guinea pig by cardiac arrest at a dose of 1 mg/kg iv given 5 min prior; type: functional, Cardiac ventricle
[4] = tested on: Cavia porcellus; test: Amount of ouabain needed for production of ventricular extra-systoles at a dose of 1 mg/kg (iv given 5 min prior) in guinea pig; type: functional, Cardiac ventricle
[5] = tested on: Rattus norvegicus; test: Tested for incidence of arrhythmias in rats after a intravenal administration of 0.5 mg/kg expressed as no. of positive cases out of no. of tested cases (10); type: functional
[6] = Acute toxicity determined after intravenal administration in mice; type: organism-based; conditions: mouse, in vivo, iv
[7] = tested on: Rattus norvegicus; test: Effective dose against aconitine-induced arrhythmia after intravenal administration in anesthetized rats; type: functional
[8] = tested on: Rattus norvegicus; test: Incidence of arrhythmias in rats after a intravenal administration at 4 mg/kg, expressed as no. of positive cases out of no. of tested cases (10); type: functional
[9] = (§1) Acute toxicity in secondary evaluation when administered intravenously (iv) against aconitine-induced arrhythmias in anesthetized rats.; type: organism-based; conditions: rat, in vivo
[10] = tested on: Rattus norvegicus; test: Tested for incidence of arrhythmias in rats after a intravenal administration of 1 mg/kg expressed as no. of positive cases out of no. of tested cases (10); type: functional
[11] = tested on: Rattus norvegicus; test: (§2) Acute toxicity in secondary evaluation when administered intravenously (iv) against aconitine-induced arrhythmias in anesthetized rats; type: functional, organism-based
[12] = tested on: Rattus norvegicus; test: Acute toxicity in secondary evaluation when administered intravenously (iv) against aconitine-induced arrhythmias in anesthetized rats. Relative potency with respect to quinidine.; type: functional, organism-based
[13] = tested on: Rattus norvegicus; test: as §1; type: functional, organism-based
[14] = tested on: Cavia porcellus; test: Amount of ouabain needed for production of ventricular extra-systoles at a dose of 4 mg/kg (iv given 5 min prior) in guinea pig; type: functional, Cardiac ventricle
[15] = tested on: Cavia porcellus; test: Amount of ouabain needed for production of ventricular arrhythmias that causes death in guinea pig by cardiac arrest at a dose of 4 mg/kg iv given 5 min prior; type: functional, Cardiac ventricle
[16] = tested on: Cavia porcellus; test: Amount of ouabain needed for production of ventricular fibrillation at a dose of 4 mg/kg (iv given 5 min prior) in guinea pig; type: functional, Cardiac ventricle
[17] = as §2; type: organism-based; conditions: rat, in vivo
[18] = tested on: Rattus norvegicus; test: Tested for incidence of arrhythmias in rats after a intravenal administration of 4 mg/kg expressed as no. of positive cases out of no. of tested cases (10); type: functional
[19] = tested on: Cavia porcellus; test: Amount of ouabain needed for production of ventricular arrhythmias that causes death in guinea pig by cardiac arrest at a dose of 2 mg/kg iv given 5 min prior; type: functional, Cardiac ventricle
[20] = tested on: Cavia porcellus; test: Amount of ouabain needed for production of ventricular extra-systoles at a dose of 2 mg/kg (iv given 5 min prior) in guinea pig; type: functional, Cardiac ventricle
[21] = tested on: Rattus norvegicus; test: Tested for incidence of arrhythmias in rats after a intravenal administration of 2 mg/kg expressed as no. of positive cases out of no. of tested cases (10); type: functional
[22] = tested on: Cavia porcellus; test: Amount of ouabain needed for production of ventricular fibrillation at a dose of 2 mg/kg (iv given 5 min prior) in guinea pig; type: functional, Cardiac ventricle
[23] = Acute toxicity in secondary evaluation when administered intravenously (iv) against aconitine-induced arrhythmias in anesthetized rats..parenthesis indicates 95%CL; type: organism-based; conditions: rat, in vivo

Cc1cccc(C)c1OCC(C)NC(=O)C1=CC(C)(C)NC1(C)C (stereo not drawn)
Relative potency [1]: 12.8
Average dose [2]: 0.3166 mg/kg
Average dose [3]: 0.3476 mg/kg
Average dose [4]: 0.2534 mg/kg
No. of positive cases [5]: 10
LD50 [6]: 11 mg/kg
ED150 [7]: 0.93 mg/kg

CC.Cc1cccc(C)c1NC(=O)CNC(=O)C1CC(C)(C)N(O)C1(C)C (stereo not drawn)
No. of positive cases [8]: 0
LD50 [9]: > 200 mg/kg

C=CCc1ccc(OC(C)C(=O)NCCCNC(=O)C2=CC(C)(C)NC2(C)C)c(OC)c1 (stereo not drawn)
Relative potency [1]: 14.9
No. of positive cases [10]: 10
LD50 [6]: 7.6 mg/kg
ED150 [7]: 0.8 mg/kg

Cc1cccc(C)c1OCC(C)NC(=O)C1CC(C)(C)N([O])C1(C)C (stereo not drawn)
ED150 [11]: 9.2 mg/kg
Relative potency [12]: 1.3
No. of positive cases [8]: 6
LD50 [13]: 21 mg/kg

Cc1cccc(C)c1NC(=O)C1=CC(C)(C)NC1(C)C
Relative potency [1]: 5.7
No. of positive cases [10]: 7
LD50 [6]: 6 mg/kg
ED150 [7]: 2.1 mg/kg

Cc1cccc(C)c1NC(=O)C(C)N (stereo not drawn) [TOCAINIDE]
Average dose [14]: 0.236 mg/kg
Average dose [15]: 0.3928 mg/kg
Average dose [16]: 0.3581 mg/kg

Cc1cccc(C)c1OCC(C)NC(=O)C1CC(C)(C)NC1(C)C (stereo not drawn)
Relative potency [1]: 30.5
No. of positive cases [5]: 10
LD50 [6]: 2 mg/kg
ED150 [7]: 0.39 mg/kg

CCN(CC)CC(=O)Nc1c(C)cccc1C [LIDOCAINE]
Average dose [14]: 0.2001 mg/kg
Average dose [15]: 0.2702 mg/kg
Average dose [16]: 0.2477 mg/kg

CC1(C)C=C(C(=O)NCCCN2C(=O)c3ccccc3C2=O)C(C)(C)N1[O]
No. of positive cases [8]: 0
LD50 [17]: 187 mg/kg

CCCc1ccc(OCC(=O)NCCCNC(=O)C2=CC(C)(C)NC2(C)C)c(OC)c1
Relative potency [1]: 4.1
LD50 [6]: 12 mg/kg
ED150 [7]: 2.9 mg/kg
No. of positive cases [18]: 10

Cc1cccc(C)c1OCC(C)N (stereo not drawn) [MEXILETINE]
Average dose [14]: 0.1855 mg/kg
Average dose [15]: 0.2861 mg/kg
Average dose [16]: 0.2459 mg/kg

CC1(C)CC(C(=O)NCCCNCc2ccccc2OCc2ccccc2)C(C)(C)N1 (stereo not drawn)
Relative potency [1]: 22.9
No. of positive cases [10]: 10
LD50 [6]: 13 mg/kg
ED150 [7]: 0.52 mg/kg

CC1(C)C=C(C(=O)NCCCN2C(=O)c3ccccc3C2=O)C(C)(C)N1
Relative potency [1]: 4.6
Average dose [19]: 0.3825 mg/kg
Average dose [20]: 0.2369 mg/kg
No. of positive cases [21]: 10
Average dose [22]: 0.3455 mg/kg

C=CCc1ccc(OCC(=O)NCCCNC(=O)C2=CC(C)(C)NC2(C)C)c(OC)c1
Relative potency [1]: 8.5
Average dose [19]: 0.3988 mg/kg
Average dose [20]: 0.2266 mg/kg
No. of positive cases [18]: 10
Average dose [22]: 0.3536 mg/kg

Cc1cccc(C)c1NC(=O)C(C)NC(=O)C1=CC(C)(C)N([O])C1(C)C (stereo not drawn)
No. of positive cases [8]: 0
LD50 [23]: 165 mg/kg

Cc1cccc(C)c1NC(=O)CNCCCNC(=O)C1=CC(C)(C)NC1(C)C
Relative potency [1]: 32.2
No. of positive cases [10]: 10
LD50 [6]: 7.4 mg/kg
ED150 [7]: 0.37 mg/kg

CCc1nc2ccccc2c(=O)n1CCCNC(=O)C1=CC(C)(C)NC1(C)C
Relative potency [1]: 7
Average dose [2]: 0.2982 mg/kg
Average dose [3]: 0.316 mg/kg
Average dose [4]: 0.2115 mg/kg
No. of positive cases [21]: 10

CCN(CC)C(=O)COc1c(CNCCCNC(=O)C2=CC(C)(C)NC2(C)C)cccc1OC
No. of positive cases [10]: 1
LD50 [6]: 2.1 mg/kg

Cc1cccc(C)c1NC(=O)CNC(=O)C1=CC(C)(C)N([O])C1(C)C
No. of positive cases [8]: 0
LD50 [23]: 136 mg/kg

Cc1cccc(C)c1OCC(C)NC(=O)C1=CC(C)(C)N([O])C1(C)C (stereo not drawn)
No. of positive cases [8]: 0
LD50 [23]: 54 mg/kg

C=CCOc1ccccc1CNCCCNC(=O)C1=CC(C)(C)NC1(C)C
Relative potency [1]: 6.3
Average dose [2]: 0.2802 mg/kg
Average dose [3]: 0.3061 mg/kg
Average dose [4]: 0.2243 mg/kg
LD50 [6]: 18 mg/kg
ED150 [7]: 1.9 mg/kg
No. of positive cases [21]: 10
